Measurements as given in ChEMBL document CHEMBL3217626, “Identification of 4,6-diaryl-1,4-dihydropyridines as a new class of neuroprotective agents” (Medchemcomm, 2013).

Experiments:
SH-SY5Y [1] = test: Neuroprotective activity in human SH-SY5Y cells assessed as inhibition of potassium-induced Ca2+ increase preincubated for 15 mins followed by potassium addition measured for 14 seconds by fluorescence assay; assay type: functional, cell-based
SH-SY5Y [2] = test: Neuroprotective activity in human SH-SY5Y cells under serum-free condition assessed as cell survival at 5 uM after 24 hrs by MTT assay in presence of potassium relative to control; assay type: functional; details: read-out: Survival
SH-SY5Y [3] = test: Neuroprotective activity in human SH-SY5Y cells under oxygen and glucose deprived condition assessed as cell survival at 5 uM co-incubated for 4 hrs under anaerobic condition measured after 20 hrs by MTT assay relative to control; assay type: functional; details: read-out: Survival
SH-SY5Y [4] = test: Neuroprotective activity in human SH-SY5Y cells assessed as inhibition of potassium-induced Ca2+ increase at 10 uM preincubated for 15 mins followed by potassium addition measured for 14 seconds by fluorescence assay relative to control; assay type: functional
SH-SY5Y [5] = test: Neuroprotective activity in human SH-SY5Y cells under serum-free condition assessed as protection against potassium-induced toxicity at 5 uM after 24 hrs by MTT assay relative to control; assay type: functional
SH-SY5Y [6] = test: Neuroprotective activity in human SH-SY5Y cells under oxygen and glucose deprived condition assessed as protection against oxidative stress at 5 uM co-incubated for 4 hrs under anaerobic condition measured after 20 hrs by MTT assay relative to control; assay type: functional
SH-SY5Y [7] = test: Neuroprotective activity in human SH-SY5Y cells under serum-free condition assessed as protection against potassium-induced toxicity at 0.3 uM after 24 hrs by MTT assay relative to control; assay type: functional
SH-SY5Y [8] = test: Neuroprotective activity in human SH-SY5Y cells under oxygen and glucose deprived condition assessed as protection against oxidative stress at 0.3 uM co-incubated for 4 hrs under anaerobic condition measured after 20 hrs by MTT assay relative to control; assay type: functional
SH-SY5Y [9] = test: Neuroprotective activity in human SH-SY5Y cells under serum-free condition assessed as cell survival at 0.3 uM after 24 hrs by MTT assay in presence of potassium relative to control; assay type: functional; details: read-out: Survival
SH-SY5Y [10] = test: Neuroprotective activity in human SH-SY5Y cells under oxygen and glucose deprived condition assessed as cell survival at 0.3 uM co-incubated for 4 hrs under anaerobic condition measured after 20 hrs by MTT assay relative to control; assay type: functional; details: read-out: Survival
SH-SY5Y [11] = test: Neuroprotective activity in human SH-SY5Y cells under oxygen and glucose deprived condition assessed as cell survival at 0.1 uM co-incubated for 4 hrs under anaerobic condition measured after 20 hrs by MTT assay relative to control; assay type: functional; details: read-out: Survival
SH-SY5Y [12] = test: Neuroprotective activity in human SH-SY5Y cells under oxygen and glucose deprived condition assessed as protection against oxidative stress at 0.1 uM co-incubated for 4 hrs under anaerobic condition measured after 20 hrs by MTT assay relative to control; assay type: functional

COc1ccc(C2C=C(c3ccccc3)NC(C)=C2C(=O)SC(C)(C)C)cc1 (stereo unspecified)
IC50 (SH-SY5Y [1]): 26.8 µM | inhibition (SH-SY5Y [1]): Dose-dependent effect | viability at 5 µM (SH-SY5Y [2]): 66.7% | viability at 5 µM (SH-SY5Y [3]): 57.6% | inhibition at 10 µM (SH-SY5Y [4]): 52.3% | Activity (SH-SY5Y [5]): 31.27% | Activity (SH-SY5Y [6]): 17.38%

COC(=O)C1=C(C)NC(C)=C(C(=O)OC)C1c1ccccc1[N+](=O)[O-] [NIFEDIPINE]
Activity (SH-SY5Y [7]): 15.76% | inhibition at 10 µM (SH-SY5Y [4]): 59.8% | Activity (SH-SY5Y [8]): 12.4% | viability at 0.3 µM (SH-SY5Y [9]): 58.7% | viability at 0.3 µM (SH-SY5Y [10]): 55%

CC1=C(C(=O)SC(C)(C)C)C(c2ccc(C)cc2)C=C(c2ccccc2)N1 (stereo unspecified)
viability at 5 µM (SH-SY5Y [2]): 67.4% | viability at 5 µM (SH-SY5Y [3]): 64.7% | inhibition at 10 µM (SH-SY5Y [4]): 36.8% | Activity (SH-SY5Y [5]): 30.44% | Activity (SH-SY5Y [6]): 31.16%

CC1=C(C(=O)SC(C)(C)C)C(c2ccccc2)C=C(c2ccccc2)N1 (stereo unspecified)
viability at 5 µM (SH-SY5Y [2]): 68% | viability at 5 µM (SH-SY5Y [3]): 61.5% | inhibition at 10 µM (SH-SY5Y [4]): 35.1% | Activity (SH-SY5Y [5]): 34.13% | Activity (SH-SY5Y [6]): 24.91%

CCOC(=O)C1=C(CC)NC(c2ccccc2)=CC1c1ccccc1 (stereo unspecified)
IC50 (SH-SY5Y [1]): 12.8 µM | inhibition (SH-SY5Y [1]): Dose-dependent effect | viability at 5 µM (SH-SY5Y [2]): 67.3% | viability at 5 µM (SH-SY5Y [3]): 57.6% | inhibition at 10 µM (SH-SY5Y [4]): 53.8% | Activity (SH-SY5Y [5]): 31.37% | Activity (SH-SY5Y [6]): 17.69%

CC1=C(C(=O)SC(C)(C)C)C(/C(C)=C/c2ccccc2)C=C(c2ccccc2)N1 (stereo unspecified)
viability at 5 µM (SH-SY5Y [2]): 69% | viability at 5 µM (SH-SY5Y [3]): 63.9% | inhibition at 10 µM (SH-SY5Y [4]): 40% | Activity (SH-SY5Y [5]): 35.26% | Activity (SH-SY5Y [6]): 35.82%

CCOC(=O)C1=C(C)NC(c2ccc(C)cc2)=CC1c1cccs1 (stereo unspecified)
viability at 5 µM (SH-SY5Y [2]): 75.6% | viability at 5 µM (SH-SY5Y [3]): 64.7% | inhibition at 10 µM (SH-SY5Y [4]): 36.6% | Activity (SH-SY5Y [5]): 50.73% | Activity (SH-SY5Y [6]): 31.04%

CC1=C(C(=O)SC(C)(C)C)C(c2ccc(Br)cc2)C=C(c2ccc(C)cc2)N1 (stereo unspecified)
viability at 5 µM (SH-SY5Y [2]): 67.2% | viability at 5 µM (SH-SY5Y [3]): 60.3% | inhibition at 10 µM (SH-SY5Y [4]): 35.4% | Activity (SH-SY5Y [5]): 34.46% | Activity (SH-SY5Y [6]): 21.83%

COc1ccc2[nH]cc(CCNC(C)=O)c2c1 [MELATONIN]
viability at 0.1 µM (SH-SY5Y [11]): 65.8% | Activity (SH-SY5Y [12]): 28.85%

CCOC(=O)C1=C(C)NC(c2ccccc2)=CC1c1ccccc1 (stereo unspecified)
viability at 5 µM (SH-SY5Y [2]): 67.6% | viability at 5 µM (SH-SY5Y [3]): 60.8% | inhibition at 10 µM (SH-SY5Y [4]): 32.5% | Activity (SH-SY5Y [5]): 34.65% | Activity (SH-SY5Y [6]): 22.76%

CC(=O)C1=C(C)NC(c2ccccc2)=CC1c1ccccc1 (stereo unspecified)
viability at 5 µM (SH-SY5Y [2]): 67.4% | viability at 5 µM (SH-SY5Y [3]): 53.9% | inhibition at 10 µM (SH-SY5Y [4]): 33.8% | Activity (SH-SY5Y [5]): 32.46% | Activity (SH-SY5Y [6]): 9.06%

CCOC(=O)C1=C(C)NC(c2ccc(Cl)cc2)=CC1c1ccccc1 (stereo unspecified)
viability at 5 µM (SH-SY5Y [2]): 69.3% | viability at 5 µM (SH-SY5Y [3]): 58.9% | inhibition at 10 µM (SH-SY5Y [4]): 44.9% | Activity (SH-SY5Y [5]): 36.57% | Activity (SH-SY5Y [6]): 19.26%

CC1=C(C(=O)SC(C)(C)C)C(c2ccc(C)cc2)C=C(c2ccc(C)cc2)N1 (stereo unspecified)
viability at 5 µM (SH-SY5Y [2]): 69.8% | viability at 5 µM (SH-SY5Y [3]): 56% | inhibition at 10 µM (SH-SY5Y [4]): 12.6% | Activity (SH-SY5Y [5]): 36.24% | Activity (SH-SY5Y [6]): 12.66%

O=C1CCCC2=C1C(c1ccccc1)C=C(c1ccccc1)N2 (stereo unspecified)
viability at 5 µM (SH-SY5Y [2]): 66.4% | viability at 5 µM (SH-SY5Y [3]): 62.1% | inhibition at 10 µM (SH-SY5Y [4]): 41.2% | Activity (SH-SY5Y [5]): 28.23% | Activity (SH-SY5Y [6]): 26.8%
